Measurements reported in patent US20210293825A1, “METHODS FOR PRECISION THERAPEUTIC TARGETING OF HUMAN CANCER CELL MOTILITY AND KITS THEREOF” (UNITED STATES GOVERNMENT AS REPRESENTED BY THE DEPARTMENT …, priority 2018, published 2021).

Legend:
[1] = system: phosphorylation of p38 MAPK or of HSP27; assay: Downstream phosphorylation of p38 MAPK and HSP27 in cells (Western blot); format: cell-based, human; settings: PC3-M cells, 50 μM, 24 hours, then TGFβ
Protocol: FIG. 16a is a depiction of established MKK4 pathway regulating human PCa cell metastasis. […] Values are the mean±SD (of N=2 replicates) increase in melting temperature (ΔTm) of purified recombinant MKK4 induced by the indicated concentrations of KBU2046 or genistein. […] The indicated concentrations of KBU2046 were added to recombinant activated MKK4, and its ability to phosphorylate kinase dead p38a MAPK (K53A) was measured by Western blot for total (p38 MAPK) and phosphorylated (pp38 MAPK) forms of p38 MAPK. […] PC3-M cells were pre-treated for 24 hours with 50 μM KBU2046 or genistein, as indicated, then with TGFβ, and Western blot performed. These findings are from a single experiment, with similar findings in identical separate experiments, repeated at least once.

[2] = system: human PCa PC3-M cell orthotopic implants; assay: Murine orthotopic implantation model of human PCa (lung metastasis); format: in vivo, athymic mice; settings: mice treated as in FIG. 2a
Protocol: Cohorts of N=12 athymic mice bearing human PCa PC3-M cell orthotopic implants (a), or of N=5 non-tumor bearing athymic mice (b), were treated with KBU2046 incorporated into chow, and resultant lung metastasis (a) or plasma KBU2046 concentration (b) measured. Values are the mean±SEM. The relationship between dose and metastasis was evaluated by two-sided ANOVA (a). FIG. 2c a comprehensive characterization of KBU2046 pharmacokinetics. CD1 mice were dosed with 100 mg KBU2046/kg via oral gavage or intravenous injection (iv), and blood collected at the indicated time points (data from mice dosed at 25 mg/kg are in FIG. 12, and corroborate 100 mg/kg findings). […] The dotted horizontal line denotes a concentration of 24 nM, which was the concentration of KBU2046 measured in the blood of mice whose metastasis were suppressed by 92% (a-b). […]
Prostate cancer: orthotopic implantation. Orthotopic implantation of human GFP-PC3-M PCa cells into 6-8 week male Balb/c athymic mice (Charles River Laboratories) and quantification of distant metastasis was performed as described (Pavese, J. et al., J Vis Exp, e50873 (2013)). […] Metastasis were scored in a blinded fashion. Specifically, animals were assigned an ID number, resultant histologic slides contained a separate pathological ID number, slides were scored in a random fashion, after which the two numbers were linked up.

[3] = Pharmacokinetics after oral gavage or intravenous injection; format: in vivo, CD1 mice; settings: after a single oral dose
Protocol: Cohorts of N=12 athymic mice bearing human PCa PC3-M cell orthotopic implants (a), or of N=5 non-tumor bearing athymic mice (b), were treated with KBU2046 incorporated into chow, and resultant lung metastasis (a) or plasma KBU2046 concentration (b) measured. Values are the mean±SEM. The relationship between dose and metastasis was evaluated by two-sided ANOVA (a). FIG. 2c a comprehensive characterization of KBU2046 pharmacokinetics. CD1 mice were dosed with 100 mg KBU2046/kg via oral gavage or intravenous injection (iv), and blood collected at the indicated time points (data from mice dosed at 25 mg/kg are in FIG. 12, and corroborate 100 mg/kg findings). For each route and time point, N=3 mice were sampled. Individual data points are the resultant plasma concentrations from individual mice, and are the mean of N=2 measurements. The dotted horizontal line denotes a concentration of 24 nM, which was the concentration of KBU2046 measured in the blood of mice whose metastasis were suppressed by 92% (a-b). […]
KBU2046 Quantification and Pharmacokinetics. […]
Plasma KBU2046 concentrations were measured in duplicate by liquid chromatography-tandem mass spectrometry after sample preparation by solid-phase extraction. […] The mass-to-charge ratios of the precursor-to-product ion reactions monitored were 243.5→125.1 for KBU2046 and 257.0→165.0 for the internal standard. […]

[4] = system: RAF1 in PC3 and PC3-M cells; assay: RAF1-Ser338 phosphorylation in prostate cancer cells (Western blot); format: cell-based, human; settings: 10 μM
Protocol: PC3 and PC3-M human prostate cancer cells were treated with 10 μM KBU2046 for the indicated lengths of time; control cells (C) were treated with vehicle. Levels of RAF1-Ser^338 phosphorylation (pRaf1), total RAF1, and GAPDH proteins were then measured by Western blot.

O=C1c2ccccc2OCC1c1ccc(F)cc1 (racemic) [KBU2046, (±)-3(4-fluorophenyl)chroman-4-one]
inhibition of downstream phosphorylation of p38 MAPK or HSP27 [1]: did not inhibit downstream phosphorylation of p38 MAPK or of HSP27
primary tumor growth (tumor weight) [2]: does not inhibit primary tumor cell growth
maintenance of plasma concentrations >24 nM [3]: 9.3 h
levels of phospho-RAF1 [4]: decreased levels of phospho-RAF1 in a time-dependent manner
